Experimental findings from PMC3062577, “Purification and biochemical properties of a cytochrome bc complex from the aerobic hyperthermophilic archaeon Aeropyrum pernix” (BMC Microbiology, 2011) are described below.

Assay [1] addresses T1, cytochrome oa3 oxidase (Aeropyrum pernix, UniProt Q9YDX6+Q9YDX7).
T1 construct: gene aoxB; native, partially purified from A. pernix K1 membranes in DDM; 140 kDa on BN-PAGE; bands 74, 40 and 25 kDa (25 kDa = cytochrome c553); assigned to AoxA/AoxB by size only; aoxABC = APE_0792.1, APE_0793.1, APE_0795.1
The assay can be described thus: spectrophotometric TMPD oxidation at […] nm. Type of assay: biochemical. The following applies: 25 mM TMPD, 0.1 M NaCl, 50 mM NaPi pH 6.5, 40 °C; without added cytochrome c553.

The target of assay [2] is T2, cytochrome c553 complex (cytochrome bc complex) (Aeropyrum pernix, UniProt Q9YB72+Q9YB73+Q9YB78).
T2 construct: gene soxC; native complex purified from A. pernix K1 membranes in DDM; 80 kDa on BN-PAGE; subunits 40, 30 and 25 kDa; only the 25-kDa subunit identified by mass (21,344)
T2 sequence (Q9YB72 1-571): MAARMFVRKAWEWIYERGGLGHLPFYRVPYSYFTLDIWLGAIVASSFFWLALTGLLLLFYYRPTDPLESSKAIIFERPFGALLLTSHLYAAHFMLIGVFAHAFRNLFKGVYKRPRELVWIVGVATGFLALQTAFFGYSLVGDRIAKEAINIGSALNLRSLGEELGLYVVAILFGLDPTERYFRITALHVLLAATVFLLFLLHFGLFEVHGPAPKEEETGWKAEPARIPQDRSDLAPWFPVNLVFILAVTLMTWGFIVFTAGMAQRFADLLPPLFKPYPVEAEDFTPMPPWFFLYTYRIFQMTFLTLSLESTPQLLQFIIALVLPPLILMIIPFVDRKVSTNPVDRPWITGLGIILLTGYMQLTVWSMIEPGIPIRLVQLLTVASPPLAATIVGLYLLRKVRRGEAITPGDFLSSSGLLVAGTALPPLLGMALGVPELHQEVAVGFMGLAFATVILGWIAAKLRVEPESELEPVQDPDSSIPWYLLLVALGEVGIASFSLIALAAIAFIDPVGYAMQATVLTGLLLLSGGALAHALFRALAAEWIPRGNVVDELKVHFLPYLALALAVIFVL
T2 sequence (Q9YB73 34-265): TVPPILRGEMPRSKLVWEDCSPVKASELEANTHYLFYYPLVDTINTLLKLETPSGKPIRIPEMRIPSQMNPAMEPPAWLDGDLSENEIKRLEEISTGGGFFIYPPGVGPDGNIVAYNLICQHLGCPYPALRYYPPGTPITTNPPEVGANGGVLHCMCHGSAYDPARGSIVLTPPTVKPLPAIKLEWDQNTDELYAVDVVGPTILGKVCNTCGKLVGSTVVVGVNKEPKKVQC
T2 sequence (Q9YB78 1-190): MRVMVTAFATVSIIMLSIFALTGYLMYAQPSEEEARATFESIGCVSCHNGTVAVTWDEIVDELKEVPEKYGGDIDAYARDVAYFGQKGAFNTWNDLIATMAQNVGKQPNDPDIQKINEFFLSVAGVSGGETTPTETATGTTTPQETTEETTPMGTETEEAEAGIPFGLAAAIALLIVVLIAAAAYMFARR
The assay can be described thus: spectrophotometric menaquinol oxidation / yeast cytochrome c reduction. Type of assay: biochemical. The following applies: acceptor yeast cytochrome c; pH 7.0, 40 °C, 0.2 mM menaquinol-1 (menaquinol oxidase assay); 0.1% DDM.

T1 sequence (Q9YDX6 whole entry): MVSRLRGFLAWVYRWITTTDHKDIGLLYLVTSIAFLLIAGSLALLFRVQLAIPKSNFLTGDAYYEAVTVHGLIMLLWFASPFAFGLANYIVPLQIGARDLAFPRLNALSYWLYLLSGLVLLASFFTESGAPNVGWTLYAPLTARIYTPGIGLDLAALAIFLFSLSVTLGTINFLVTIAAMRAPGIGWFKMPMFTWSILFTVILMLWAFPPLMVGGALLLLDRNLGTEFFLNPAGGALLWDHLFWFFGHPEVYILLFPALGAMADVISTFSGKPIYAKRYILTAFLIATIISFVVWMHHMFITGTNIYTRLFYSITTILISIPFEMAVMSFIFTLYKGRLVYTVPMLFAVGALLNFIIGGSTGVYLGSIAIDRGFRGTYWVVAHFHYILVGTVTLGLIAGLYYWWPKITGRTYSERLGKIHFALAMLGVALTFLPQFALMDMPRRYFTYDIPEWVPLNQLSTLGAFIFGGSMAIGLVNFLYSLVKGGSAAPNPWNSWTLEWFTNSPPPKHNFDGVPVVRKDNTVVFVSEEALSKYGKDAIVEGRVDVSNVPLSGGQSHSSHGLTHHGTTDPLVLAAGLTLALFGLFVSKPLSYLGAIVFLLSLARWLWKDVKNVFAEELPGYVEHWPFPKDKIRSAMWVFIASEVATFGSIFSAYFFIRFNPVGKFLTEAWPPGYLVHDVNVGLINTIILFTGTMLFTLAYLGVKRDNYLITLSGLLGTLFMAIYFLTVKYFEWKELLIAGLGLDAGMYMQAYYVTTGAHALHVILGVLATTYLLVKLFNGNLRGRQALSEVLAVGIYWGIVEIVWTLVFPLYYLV
T1 sequence (Q9YDX7 whole entry): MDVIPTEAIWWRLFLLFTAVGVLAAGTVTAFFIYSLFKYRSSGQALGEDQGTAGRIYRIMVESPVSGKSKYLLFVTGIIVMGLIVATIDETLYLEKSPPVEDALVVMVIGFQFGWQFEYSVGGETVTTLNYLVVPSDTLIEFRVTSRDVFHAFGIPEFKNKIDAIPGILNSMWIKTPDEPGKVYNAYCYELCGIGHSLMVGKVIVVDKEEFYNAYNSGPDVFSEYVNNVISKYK
T1 sequence (Q9YDX4 whole entry partner): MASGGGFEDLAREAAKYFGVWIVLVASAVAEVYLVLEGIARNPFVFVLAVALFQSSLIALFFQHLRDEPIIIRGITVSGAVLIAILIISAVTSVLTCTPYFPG

On to `CN(C)c1ccc(N(C)C)cc1` [TMPD, N,N,N',N'-tetramethyl-p-phenylenediamine], for which the “spectrophotometric TMPD oxidation at 562 nm” value in assay [1] was “The isolated cytochrome oa3 oxidase had TMPD and yeast cytochrome c oxidation activity”.
With `CC(C)=CCc1c(C)c(O)c2ccccc2c1O` [menaquinol-1], the “spectrophotometric menaquinol oxidation / yeast cytochrome c reduction” value in assay [2] is “cytochrome c553 oxidized menaquinol and reduced yeast cytochrome c”.
